Like-named read-outs stand apart in the source and are kept apart here.

What all share (assay): TGFα-shedding assay-based GPCR screening with chimeric Gα subunit proteins
Format in all cases: cell-based

For assay [1], the target named is T1, 348 GPCRs (Homo sapiens, UniProt Q99677).
T1 construct: expressed in transfected cells; host or cells: HEK293A
The conditions noted are these: LPAR4 (lysophosphatidic acid receptor 4); 10µM, Favipiravir 100μM.

Assay [2] addresses 348 GPCRs (Homo sapiens, UniProt P35462). The conditions noted are these: 10µM, Favipiravir 100μM.
Assay [3] deals with T2, 348 GPCRs (Homo sapiens, UniProt Q8WXD0).
T2 construct: expressed in transfected cells; host or cells: HEK293A
T2 sequence (Q8WXD0 whole entry): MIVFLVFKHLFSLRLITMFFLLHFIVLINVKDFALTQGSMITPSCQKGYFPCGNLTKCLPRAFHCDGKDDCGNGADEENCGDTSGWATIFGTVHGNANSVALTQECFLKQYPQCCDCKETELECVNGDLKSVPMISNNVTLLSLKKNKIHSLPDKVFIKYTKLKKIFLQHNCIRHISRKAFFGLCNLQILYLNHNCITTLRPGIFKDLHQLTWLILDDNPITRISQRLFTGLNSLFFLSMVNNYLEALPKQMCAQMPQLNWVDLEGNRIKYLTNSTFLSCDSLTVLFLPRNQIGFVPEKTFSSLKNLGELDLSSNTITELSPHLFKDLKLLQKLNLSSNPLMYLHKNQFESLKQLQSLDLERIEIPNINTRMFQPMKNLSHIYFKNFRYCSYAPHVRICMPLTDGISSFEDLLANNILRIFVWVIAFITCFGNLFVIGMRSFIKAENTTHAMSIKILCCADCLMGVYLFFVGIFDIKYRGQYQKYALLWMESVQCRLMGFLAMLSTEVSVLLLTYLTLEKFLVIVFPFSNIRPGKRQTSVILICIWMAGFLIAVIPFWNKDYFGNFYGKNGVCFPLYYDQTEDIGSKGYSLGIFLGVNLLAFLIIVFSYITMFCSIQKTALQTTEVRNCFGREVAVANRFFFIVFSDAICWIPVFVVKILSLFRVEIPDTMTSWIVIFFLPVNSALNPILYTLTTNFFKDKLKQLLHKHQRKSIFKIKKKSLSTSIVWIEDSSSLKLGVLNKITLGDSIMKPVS
The conditions noted are these: RXFP2 (relaxin/insulin-like family peptide receptor 2); 10µM, Favipiravir 100μM.

The target in assay [4] is T3, 348 GPCRs (Homo sapiens, UniProt Q96P68).
T3 construct: expressed in transfected cells; host or cells: HEK293A

Assay [5] has as its target T4, 348 GPCRs (Homo sapiens, UniProt Q96P67).
T4 construct: expressed in transfected cells; host or cells: HEK293A
The conditions noted are these: 10µM, Favipiravir 100μM.

For assay [6], the target named is T5, 348 GPCRs (Homo sapiens, UniProt P08912).
T5 construct: expressed in transfected cells; host or cells: HEK293A
T5 sequence (P08912 1-532): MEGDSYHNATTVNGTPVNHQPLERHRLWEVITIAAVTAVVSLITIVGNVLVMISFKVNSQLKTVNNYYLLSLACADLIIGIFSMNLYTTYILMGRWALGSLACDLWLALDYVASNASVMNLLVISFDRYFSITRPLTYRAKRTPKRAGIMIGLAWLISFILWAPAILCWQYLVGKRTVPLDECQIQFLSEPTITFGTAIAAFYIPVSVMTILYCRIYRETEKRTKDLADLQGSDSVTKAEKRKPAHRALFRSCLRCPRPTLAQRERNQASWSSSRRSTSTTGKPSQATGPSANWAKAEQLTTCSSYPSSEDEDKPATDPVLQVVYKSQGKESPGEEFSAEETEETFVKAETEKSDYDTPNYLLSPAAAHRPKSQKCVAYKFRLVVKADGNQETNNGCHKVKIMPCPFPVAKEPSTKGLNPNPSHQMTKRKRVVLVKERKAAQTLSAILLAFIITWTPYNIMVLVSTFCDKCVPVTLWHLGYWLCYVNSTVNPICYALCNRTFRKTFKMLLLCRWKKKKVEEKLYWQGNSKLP

For assay [7], the target named is T6, 348 GPCRs (Homo sapiens, UniProt Q8IZF2).
T6 construct: expressed in transfected cells; host or cells: HEK293A
T6 sequence (Q8IZF2 22-1346): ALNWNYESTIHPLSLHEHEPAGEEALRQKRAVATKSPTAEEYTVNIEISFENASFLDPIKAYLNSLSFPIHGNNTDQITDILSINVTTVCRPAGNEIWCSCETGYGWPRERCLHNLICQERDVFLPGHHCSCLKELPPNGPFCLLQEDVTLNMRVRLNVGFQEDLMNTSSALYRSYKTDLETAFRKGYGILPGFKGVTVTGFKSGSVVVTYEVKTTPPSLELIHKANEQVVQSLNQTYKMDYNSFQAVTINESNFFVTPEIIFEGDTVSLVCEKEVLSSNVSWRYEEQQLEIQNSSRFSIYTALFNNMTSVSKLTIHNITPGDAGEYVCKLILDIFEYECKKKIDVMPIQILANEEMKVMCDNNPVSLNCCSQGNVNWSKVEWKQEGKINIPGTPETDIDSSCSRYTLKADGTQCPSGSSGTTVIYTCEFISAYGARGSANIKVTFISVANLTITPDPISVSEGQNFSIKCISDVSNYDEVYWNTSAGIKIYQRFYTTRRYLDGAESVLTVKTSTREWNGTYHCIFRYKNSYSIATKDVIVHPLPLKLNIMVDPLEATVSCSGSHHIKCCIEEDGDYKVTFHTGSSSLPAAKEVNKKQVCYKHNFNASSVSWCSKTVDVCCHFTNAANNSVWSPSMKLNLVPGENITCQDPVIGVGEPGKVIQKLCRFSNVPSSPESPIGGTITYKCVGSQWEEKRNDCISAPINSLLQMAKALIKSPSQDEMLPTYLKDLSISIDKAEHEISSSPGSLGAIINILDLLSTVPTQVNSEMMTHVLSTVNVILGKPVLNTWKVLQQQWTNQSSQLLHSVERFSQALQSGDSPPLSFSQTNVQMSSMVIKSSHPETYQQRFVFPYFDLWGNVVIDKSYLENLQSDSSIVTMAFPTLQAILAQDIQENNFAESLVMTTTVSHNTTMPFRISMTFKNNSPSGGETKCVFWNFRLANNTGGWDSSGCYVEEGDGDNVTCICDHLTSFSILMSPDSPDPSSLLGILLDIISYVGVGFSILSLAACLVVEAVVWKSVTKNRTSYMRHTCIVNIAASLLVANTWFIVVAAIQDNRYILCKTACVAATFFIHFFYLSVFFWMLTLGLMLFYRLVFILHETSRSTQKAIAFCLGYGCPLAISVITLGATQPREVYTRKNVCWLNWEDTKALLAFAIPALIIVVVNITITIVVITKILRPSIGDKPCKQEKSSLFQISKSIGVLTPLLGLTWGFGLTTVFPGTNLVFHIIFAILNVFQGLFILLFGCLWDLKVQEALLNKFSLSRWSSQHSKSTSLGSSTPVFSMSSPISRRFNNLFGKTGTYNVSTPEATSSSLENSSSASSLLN

Assay [8] has as its target T7, 348 GPCRs (Homo sapiens, UniProt P28336).
T7 construct: expressed in transfected cells; host or cells: HEK293A
The conditions noted are these: 10µM, Favipiravir 100μM.

Setting [9] is: read-out: % GPCR activation compared to TPA, D3 (dopamine receptor D3).
[10] abbreviates: read-out: % GPCR activation compared to TPA, GPCR OXGR1 (oxoglutarate (alpha-ketoglutarate) receptor 1).
[11] abbreviates: read-out: % GPCR activation compared to TPA, GPR82 (G Protein-Coupled Receptor 82).
Where [12] appears, read: read-out: % GPCR activation compared to TPA, GPCR M5 (Muscarinic acetylcholine receptor M5).
Setting [13] is: read-out: % GPCR activation compared to TPA, GPCR GPR116 (G-protein-coupled receptor 116 (ADGRF5)).
The mark [14] stands for this setting: read-out: % GPCR activation compared to TPA, NMBR (neuromedin B receptor).
[15] abbreviates: D3 (dopamine receptor D3), read-out: % GPCR activation compared to TPA.
[16] abbreviates: GPR82 (G Protein-Coupled Receptor 82), read-out: % GPCR activation compared to TPA.
[17] abbreviates: NMBR (neuromedin B receptor), read-out: % GPCR activation compared to TPA.
[18] abbreviates: GPCR OXGR1 (oxoglutarate (alpha-ketoglutarate) receptor 1), read-out: % GPCR activation compared to TPA.
The mark [19] stands for this setting: GPCR M5 (Muscarinic acetylcholine receptor M5), read-out: % GPCR activation compared to TPA.
[20] abbreviates: GPCR GPR116 (G-protein-coupled receptor 116 (ADGRF5)), read-out: % GPCR activation compared to TPA.

T7 sequence (P28336 whole entry): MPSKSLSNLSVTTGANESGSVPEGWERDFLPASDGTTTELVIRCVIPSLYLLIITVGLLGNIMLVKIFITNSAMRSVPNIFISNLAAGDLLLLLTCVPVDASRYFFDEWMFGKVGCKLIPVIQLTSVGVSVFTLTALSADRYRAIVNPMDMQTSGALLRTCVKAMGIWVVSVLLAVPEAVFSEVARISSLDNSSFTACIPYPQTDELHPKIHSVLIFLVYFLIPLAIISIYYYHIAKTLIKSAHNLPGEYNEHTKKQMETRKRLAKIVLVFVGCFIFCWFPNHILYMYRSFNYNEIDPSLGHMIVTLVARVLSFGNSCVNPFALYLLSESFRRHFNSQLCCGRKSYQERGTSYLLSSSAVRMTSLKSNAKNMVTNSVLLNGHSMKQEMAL
T4 sequence (Q96P67 whole entry): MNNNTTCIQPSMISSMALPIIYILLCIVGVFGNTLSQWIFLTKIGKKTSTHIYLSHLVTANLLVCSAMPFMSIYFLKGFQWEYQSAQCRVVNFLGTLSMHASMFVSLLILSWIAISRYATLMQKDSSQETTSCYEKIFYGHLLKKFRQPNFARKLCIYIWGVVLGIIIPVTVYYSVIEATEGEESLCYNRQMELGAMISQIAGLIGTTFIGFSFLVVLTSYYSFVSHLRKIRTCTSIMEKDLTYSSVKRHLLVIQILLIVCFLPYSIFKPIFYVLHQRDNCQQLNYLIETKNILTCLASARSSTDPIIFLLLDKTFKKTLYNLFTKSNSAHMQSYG
T1 sequence (Q99677 whole entry): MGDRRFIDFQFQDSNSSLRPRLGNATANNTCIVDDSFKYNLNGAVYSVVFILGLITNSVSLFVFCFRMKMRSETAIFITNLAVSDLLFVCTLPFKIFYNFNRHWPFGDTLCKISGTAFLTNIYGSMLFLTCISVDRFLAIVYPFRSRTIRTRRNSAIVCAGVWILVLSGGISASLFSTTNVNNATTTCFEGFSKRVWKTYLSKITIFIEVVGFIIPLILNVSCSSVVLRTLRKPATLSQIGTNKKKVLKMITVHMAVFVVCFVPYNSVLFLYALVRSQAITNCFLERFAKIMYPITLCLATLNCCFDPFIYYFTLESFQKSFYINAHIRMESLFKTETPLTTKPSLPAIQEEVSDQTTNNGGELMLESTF
Sequence of 348 GPCRs (Homo sapiens, UniProt P35462) (P35462 whole entry): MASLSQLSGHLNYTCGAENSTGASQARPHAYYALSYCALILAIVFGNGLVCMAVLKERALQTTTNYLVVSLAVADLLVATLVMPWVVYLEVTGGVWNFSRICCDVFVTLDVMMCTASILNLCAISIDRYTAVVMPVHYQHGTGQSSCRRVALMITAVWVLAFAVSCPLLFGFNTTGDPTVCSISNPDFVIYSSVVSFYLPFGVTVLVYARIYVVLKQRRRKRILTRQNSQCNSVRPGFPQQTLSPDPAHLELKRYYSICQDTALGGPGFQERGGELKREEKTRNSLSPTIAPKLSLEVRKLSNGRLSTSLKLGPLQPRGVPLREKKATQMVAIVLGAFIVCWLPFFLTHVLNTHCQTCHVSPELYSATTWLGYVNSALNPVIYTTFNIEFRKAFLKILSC

Regarding `CC(C)OC(=O)[C@H](C)N[P@](=O)(OC[C@H]1O[C@@H](n2ccc(=O)[nH]c2=O)[C@](C)(F)[C@@H]1O)Oc1ccccc1` [sofosbuvir], the figures for the “% GPCR activation compared to TPA” value at 348 GPCRs [1] and at 348 GPCRs [3] were 3.133% and -1.511%, respectively. Also, the figures for the activation at 100 µM on 348 GPCRs [2] (setting [9]) and on 348 GPCRs [5] (setting [11]) were -1.16% and 0.262%, respectively. Further, the activation at 10 µM is 1.77% on 348 GPCRs [4] (setting [10]), -1.43% at 348 GPCRs [6] (setting [12]), -0.621% on 348 GPCRs [7] (setting [13]) and -0.697% at 348 GPCRs [8] (setting [14]).

On to `NC(=O)c1nc(F)cnc1O` [favipiravir, 6-fluoro-3-hydroxy-2-pyrazinecarboxamide], for which the “% GPCR activation compared to TPA” value at 348 GPCRs [1] is recorded as -0.5456%; at 348 GPCRs [3], -0.6733%. The activation at 100 µM at 348 GPCRs [2] (setting [15]) was 7.52%; at 348 GPCRs [4] (GPCR OXGR1 (oxoglutarate (alpha-ketoglutarate) receptor 1), 100μM, read-out: % GPCR activation compared to TPA), -1.07%; on 348 GPCRs [5] (setting [16]) it was -0.0995%; at 348 GPCRs [6] (GPCR M5 (Muscarinic acetylcholine receptor M5), 100μM, read-out: % GPCR activation compared to TPA), 0.695%; at 348 GPCRs [7] (GPCR GPR116 (G-protein-coupled receptor 116 (ADGRF5)), 100μM, read-out: % GPCR activation compared to TPA), -1.79%. In addition, the activation at 10 µM at 348 GPCRs [8] (setting [17]) is -0.624%.

In the case of `CCC(CC)COC(=O)[C@H](C)N[P@](=O)(OC[C@H]1O[C@@](C#N)(c2ccc3c(N)ncnn23)[C@H](O)[C@@H]1O)Oc1ccccc1` [remdesivir], the “% GPCR activation compared to TPA” value at 348 GPCRs [1] is reported as -0.0834%; on 348 GPCRs [3], 0.3691%. For the same molecule, the activation at 100 µM is 7.67% on 348 GPCRs [2] (setting [9]) and -0.315% on 348 GPCRs [5] (setting [11]). The activation at 10 µM on 348 GPCRs [4] (setting [10]) is 0.444%; at 348 GPCRs [6] (setting [12]) it was -0.595%; at 348 GPCRs [7] (setting [13]) it was -2.59%; on 348 GPCRs [8] (setting [14]) it was 0.461%.

`N#C[C@@]1(c2ccc3c(N)ncnn23)O[C@H](CO)[C@@H](O)[C@H]1O` [GS441524]: the “% GPCR activation compared to TPA” value at 348 GPCRs [1] is given as 1.193%; at 348 GPCRs [3], -1.305%. The values for the activation at 100 µM on 348 GPCRs [2] (setting [15]) and at 348 GPCRs [5] (setting [16]) were 4.08% and -1.55%, respectively. The activation at 10 µM was -0.462% at 348 GPCRs [4] (setting [18]), 2.9% at 348 GPCRs [6] (setting [19]), -2.91% at 348 GPCRs [7] (setting [20]) and -1.1% at 348 GPCRs [8] (setting [17]).

On to `CC(C)C(=O)OC[C@H]1O[C@@H](n2ccc(NO)nc2=O)[C@H](O)[C@@H]1O` [molnupiravir], for which the “% GPCR activation compared to TPA” value is on record as -0.2125% on 348 GPCRs [1] and -1.679% on 348 GPCRs [3]. The activation at 100 µM was 0.0207% at 348 GPCRs [2] (setting [15]) and -1.43% at 348 GPCRs [5] (setting [16]). For the same molecule, the activation at 10 µM on 348 GPCRs [4] (setting [18]) is 0.239%; at 348 GPCRs [6] (setting [19]) it was -0.639%; on 348 GPCRs [7] (setting [20]) it was -2.23%; at 348 GPCRs [8] (setting [17]) it was 0.279%.

The values are drawn from PMC10175918 (Communications Biology, 2023).
